Structures can show the parent of a compound that is named as a salt. Where two headings read alike, the source gives them in different places.
Legend:
Assay type in all cases: biochemical
recombinant PRL-3 = biological target: T1, recombinant PRL-3 (Homo sapiens, UniProt O75365); experiment: In vitro phosphatase assay (DiFMUP hydrolysis), PRL-3; note: test concentration or dose not given here
T1 construct: 6xHis (N, cleaved yes); made in house; host or cells: E. coli One Shot BL21 Star

recombinant PRL-1 = biological target: T2, recombinant PRL-1 (Homo sapiens, UniProt Q93096); experiment: In vitro phosphatase assay (DiFMUP hydrolysis), PRL-1; note: test concentration or dose not given here
T2 construct: 6xHis (N, cleaved yes); made in house; host or cells: E. coli One Shot BL21 Star
T2 sequence (Q93096 1-173): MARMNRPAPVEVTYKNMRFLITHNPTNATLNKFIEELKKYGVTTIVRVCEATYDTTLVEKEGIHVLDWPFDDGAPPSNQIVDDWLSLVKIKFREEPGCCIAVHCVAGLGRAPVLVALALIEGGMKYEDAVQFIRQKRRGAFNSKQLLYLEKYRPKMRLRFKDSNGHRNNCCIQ

recombinant PRL-2 = biological target: T3, recombinant PRL-2 (Homo sapiens, UniProt Q12974); experiment: In vitro phosphatase assay (DiFMUP hydrolysis), PRL-2;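 note: PRL-2 activity read as DiFMUP hydrolysis after 20 min at room temperature with drug, enzyme first pre-reduced at 4 °C for 20 min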
T3 construct: 6xHis (N, cleaved yes); made in house; host or cells: E. coli One Shot BL21 Star
T3 sequence (Q12974 1-167): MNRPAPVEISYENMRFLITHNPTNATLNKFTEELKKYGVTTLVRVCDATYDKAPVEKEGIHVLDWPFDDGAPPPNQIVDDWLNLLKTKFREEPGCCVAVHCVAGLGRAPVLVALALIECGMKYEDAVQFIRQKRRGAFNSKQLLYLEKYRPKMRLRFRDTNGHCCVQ

[1] = FDA-approved drug screen, compared to DMSO

T1 sequence (O75365 whole entry): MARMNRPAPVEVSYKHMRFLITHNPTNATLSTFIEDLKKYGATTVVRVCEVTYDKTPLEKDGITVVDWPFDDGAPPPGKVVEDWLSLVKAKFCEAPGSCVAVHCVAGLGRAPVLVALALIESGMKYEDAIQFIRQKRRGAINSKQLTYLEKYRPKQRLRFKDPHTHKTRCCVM

SMILES | % Phosphatase Activity (compared to DMSO) PRL-3 (recombinant PRL-3; [1]) | % Phosphatase Activity (compared to DMSO) PRL-1 (recombinant PRL-1; [1]) | % Phosphatase Activity (compared to DMSO) PRL-2 (recombinant PRL-2; [1]) | % Phosphatase Activity (compared to DMSO) PRL-3 (recombinant PRL-3) | % Phosphatase Activity (compared to DMSO) PRL-1 (recombinant PRL-1) | % Phosphatase Activity (compared to DMSO) PRL-2 (recombinant PRL-2)
Cc1c(-c2ccnn2C)cc(C(=O)NCc2ccc(S(C)(=O)=O)cn2)c(=O)n1-c1cccc(C(F)(F)F)c1 [Alvelestat (AZD9668)] | 121% | 138% | 114% |  |  | 
CCN(CCCc1ccccc1)CCCc1ccccc1 [Alverine Citrate] | 95% | 97% | 107% |  |  | 
NC12CC3CC(CC(C3)C1)C2 [Amantadine HCl] | 88% | 117% | 127% |  |  | 
COC(c1ccccc1)(c1ccccc1)[C@H](Oc1nc(C)cc(C)n1)C(=O)O [Ambrisentan] | 78% | 94% | 99% |  |  | 
Cl.Nc1c(Br)cc(Br)cc1CN[C@H]1CC[C@H](O)CC1 [Ambroxol HCl] | 98% | 105% | 117% |  |  | 
CC(NC(C)(C)C)C(=O)c1cccc(Cl)c1.Cl (stereo not drawn) [Amfebutamone HCl] | 77% | 102% | 110% |  |  | 
Nc1c(CC(=O)[O-])cccc1C(=O)c1ccccc1.O.[Na+] [Amfenac Sodium Monohydrate] | 67% | 89% | 108% |  |  | 
NCCCNCCSP(=O)(O)O [Amifostine] | 114% | 110% | 108% |  |  | 
NCC[C@H](O)C(=O)N[C@@H]1C[C@H](N)[C@@H](O[C@H]2O[C@H](CN)[C@@H](O)[C@H](O)[C@H]2O)[C@H](O)[C@H]1O[C@H]1O[C@H](CO)[C@@H](O)[C@H](N)[C@H]1O [Amikacin disulfate] | 110% | 96% | 152% |  |  | 
NCC[C@H](O)C(=O)N[C@@H]1C[C@H](N)[C@@H](O[C@H]2O[C@H](CN)[C@@H](O)[C@H](O)[C@H]2O)[C@H](O)[C@H]1O[C@H]1O[C@H](CO)[C@@H](O)[C@H](N)[C@H]1O [Amikacin hydrate] | 107% | 91% | 95% |  |  | 
N=C(N)NC(=O)c1nc(Cl)c(N)nc1N [Amiloride HCl] | 230% | 234% | 300% |  |  | 
N=C(N)NC(=O)c1nc(Cl)c(N)nc1N [Amiloride hydrochloride dihydrate] | 220% | 254% | 219% |  |  | 
CCC1(c2ccc(N)cc2)CCC(=O)NC1=O (stereo not drawn) [Aminoglutethimide] | 77% | 94% | 107% |  |  | 
Cl.N=C(N)NN [Aminoguanidine (hydrochloride)] | 87% | 100% | 91% |  |  | 
Cn1c(=O)c2[nH]cnc2n(C)c1=O [Aminophylline] | 62% | 97% | 96% |  |  | 
Nc1nccs1 [Aminothiazole] | 79% | 108% | 103% |  |  | 
CCCCc1oc2ccccc2c1C(=O)c1cc(I)c(OCCN(CC)CC)c(I)c1 [Amiodarone HCl] |  |  |  | 102% | 97% | 117%
CCN1CCCC1CNC(=O)c1cc(S(=O)(=O)CC)c(N)cc1OC (stereo not drawn) [Amisulpride] | 74% | 94% | 89% |  |  | 
CN(C)CCC=C1c2ccccc2CCc2ccccc21 [Amitriptyline HCl] | 89% | 92% | 101% |  |  | 
CCOC(=O)C1=C(COCCN)NC(C)=C(C(=O)OC)C1c1ccccc1Cl.O=S(=O)(O)c1ccccc1 (stereo not drawn) [Amlodipine besylate (Norvasc)] | 168% | 152% | 174% |  |  | 
CCOC(=O)C1=C(COCCN)NC(C)=C(C(=O)OC)C1c1ccccc1Cl (stereo not drawn) [Amlodipine] | 149% | 145% | 157% |  |  | 
CCN(CC)Cc1cc(Nc2ccnc3cc(Cl)ccc23)ccc1O.Cl.Cl.O.O [Amodiaquin (dihydrochloride dihydrate)] | 77% | 84% | 74% |  |  | 
CN(C)CCN1C(=O)c2cccc3cc(N)cc(c23)C1=O [Amonafide] | 72% | 89% | 98% |  |  | 
CCC(C)(C)c1ccc(CC(C)CN2C[C@@H](C)O[C@@H](C)C2)cc1 (stereo partly drawn) [Amorolfine HCl] | 78% | 102% | 94% |  |  | 
Clc1ccc2c(c1)C(N1CCNCC1)=Nc1ccccc1O2 [Amoxapine] | 88% | 109% | 118% |  |  | 
CC1(C)S[C@@H]2[C@H](NC(=O)[C@H](N)c3ccc(O)cc3)C(=O)N2[C@H]1C(=O)[O-].[Na+] [Amoxicillin Sodium] |  |  |  | 80% | 97% | 114%
C[C@@H]1[C@H](O)[C@@H](C)/C=C/C=C/C=C/C=C/C=C/C=C/C=C/[C@H](O[C@@H]2O[C@H](C)[C@@H](O)[C@H](N)[C@@H]2O)C[C@@H]2O[C@](O)(C[C@@H](O)C[C@@H](O)[C@H](O)CC[C@@H](O)C[C@@H](O)CC(=O)O[C@H]1C)C[C@H](O)[C@H]2C(=O)O [Amphotericin B] | 80% | 102% | 92% |  |  | 
CC1(C)S[C@@H]2[C@H](NC(=O)[C@H](N)c3ccccc3)C(=O)N2[C@H]1C(=O)O [Ampicillin Trihydrate] | 72% | 92% | 106% |  |  | 
CC1(C)S[C@@H]2[C@H](NC(=O)[C@H](N)c3ccccc3)C(=O)N2[C@H]1C(=O)O [Ampicillin sodium] | 92% | 120% | 127% |  |  | 
CCOC(=O)OC(C)OC1=C(C(=O)Nc2ccccn2)N(C)S(=O)(=O)c2ccccc21 (stereo not drawn) [Ampiroxicam] | 88% | 114% | 114% |  |  | 
